{"source": "patent US20070218128A1", "about": "“Manufacturing of Quick Release Pharmaceutical Compositions of Water Insoluble Drugs and Pharmaceutical Compositions Obtained By the Process of the Invention” (priority 2004, published 2007)", "origin": "cited, not measured here", "key": {"[1]": {"settings": "for solubility in water and in 0.1 N HCl: water and 0.1 N HCl"}, "[2]": {"settings": "approximate values; for pKa1 / pKa2 / pKa3: Table 1 amino acids; for pKa: Table 1 alkaline substances, refer to the pKa of the acid"}}, "note": "Like-named read-outs stand apart in the source and are kept apart here."}
{"smiles": "CN1C(C(=O)Nc2ccccn2)=C(O)c2sc(Cl)cc2S1(=O)=O", "note": "[lornoxicam]", "values": [{"measurement": "solubility in 0.1 N HCl", "setting": "[1]; 0.1 N HCl", "value": "less than 0.1 % w/v"}, {"measurement": "solubility at a pH of 0.1 N HCl", "setting": "[1]; 0.1 N HCl, room temperature", "value": "less than 1 mg/100 ml"}]}
{"smiles": "CC(=O)Oc1ccccc1C(=O)O", "note": "[acetylsalicylic acid]", "values": [{"measurement": "solubility in water and in 0.1 N HCl", "setting": "[1]; room temperature", "value": "practically insoluble"}]}
{"smiles": "N=C(N)NCCC[C@H](N)C(=O)O", "note": "[Arginine]", "values": [{"measurement": "pKa1", "setting": "[2]", "value": "pKa1: 2.2"}, {"measurement": "pKa2", "setting": "[2]", "value": "pKa2: 9.1"}, {"measurement": "pKa3", "setting": "[2]", "value": "pKa3: 13.2"}, {"measurement": "pH", "setting": "100 g/L H2O", "value": "pH ≈ 11.4"}]}
{"smiles": "O=C([O-])/C=C\\C(=O)[O-].[Na+].[Na+]", "note": "[Sodium maleate]", "values": [{"measurement": "pKa", "setting": "[2]", "value": 6.2}]}
{"smiles": "NN", "note": "[Hydrazine]", "values": [{"measurement": "pKa", "setting": "[2]", "value": 8}]}
{"smiles": "N[C@@H](Cc1c[nH]cn1)C(=O)O", "note": "[Histidine]", "values": [{"measurement": "pKa1", "setting": "[2]", "value": "pKa1: 1.8"}, {"measurement": "pKa2", "setting": "[2]", "value": "pKa2: 6.0"}, {"measurement": "pKa3", "setting": "[2]", "value": "pKa3: 9.0"}, {"measurement": "pH", "setting": "10 g/L H2O", "value": "pH ≈ 7.7"}]}
{"smiles": "O=C([O-])/C=C/C(=O)[O-].[Na+].[Na+]", "note": "[Sodium fumerate]", "values": [{"measurement": "pKa", "setting": "[2]", "value": 4.4}]}
{"smiles": "COc1ccc2c3c1O[C@H]1[C@@H](O)C=C[C@H]4[C@@H](C2)N(C)CC[C@@]341", "note": "[Codeine, reference compound]", "values": [{"measurement": "pH in saturated solution", "setting": "saturated solution", "value": "solution ≈ 9.8)"}]}
{"smiles": "NCCCC[C@H](N)C(=O)O", "note": "[Lysine]", "values": [{"measurement": "pKa1", "setting": "[2]", "value": "pKa1: 2.2"}, {"measurement": "pKa2", "setting": "[2]", "value": "pKa2: 8.9"}]}
{"smiles": "O=C([O-])[O-].[Na+].[Na+]", "note": "[Di-sodium carbonate]", "values": [{"measurement": "pKa", "setting": "[2]", "value": 10.3}]}
{"smiles": "COc1ccc2c(c1)c(CC(=O)O)c(C)n2C(=O)c1ccc(Cl)cc1", "note": "[indometacin]", "values": [{"measurement": "solubility in water and in 0.1 N HCl", "setting": "[1]; room temperature", "value": "practically insoluble"}]}
